We go through 13 compounds from patent US20220040136A1, “TREATMENT OF VULVOVAGINAL DISORDERS” (University of Rochester, priority 2018, published 2022).

What all share (assay type): cell-based
The test system of test [1] is human vulvar fibroblasts. Description: In vitro LPV model: SPM pre-treatment of patient vestibular/vulvar fibroblasts before inflammatory stimulation, IL-6 and PGE2 by ELISA/EIA. The note with it: for effect on proinflammatory mediators linked to pain, initial tests: pre-treatment strategy, human vulvar fibroblasts; for prostaglandin E2 (PGE2) production / interleukin-6 (IL-6) production: pre-treated 10 hours with 5 nM SPM, vestibular and external vulvar fibroblasts; for prostaglandin E2 (PGE2) production: then IL-1β 10 pg/ml 48 hr, FIG. 5A; for interleukin-6 (IL-6) production: then bradykinin 100 nM 48 hr, FIG. 5B; for IL-6 production / PGE2 production: pre-treated 18 h at 5 nM, again 30 min prior to activation, IL-1β 10 pg/ml 48 h, booster at 24 h; for IL-6 production: FIG. 23A; for PGE2 production: FIG. 23B. The method, then: (§1) FIGS. 5A, 5B, 5C, and 5D are a set of diagrams showing that PGE2 and IL-6 production is reduced by SPMs. Patient vestibular or vulvar fibroblasts were pre-treated for 10 hours with Lipoxin A4 (LxA4), Resolvin D2 (RvD2), (7R)-Maresin 1 or epi(7S)-Maresin 1 at a 5 nM concentration, then activated with IL-1β (Panel A; 10 pg/ml) or bradykinin (Panel B; 100 nM) for 48 hr. Culture media were collected and analyzed for PGE2 (Panel A) or IL-6 (Panel B) content. Patient fibroblasts were also activated first with IL-1β for 30 min then treated with 5 nM (7R)-Maresin 1 or LXA4 for 18 hours, followed by a booster dose for 6 hr. Culture media were collected and analyzed for PGE2 (Panel C) or IL-6 (Panel D) content. Mean+/−SEM of n=3, ANOVA *p<0.05 vs. activation only (no SPM).
FIGS. 23A and 23B are diagrams showing six SPMs are effective in reducing IL-6 and PGE2 production from fibroblasts when used as a pre-treatment and post-treatment. Patient vestibular or vulvar fibroblasts were pre-treated for 18 h with Resolvin D3 (RvD3), Resolvin D4 (RvD4), Resolvin D5 (RvD5), Resolvin E1 (RvE1), Protectin D1 or Protectin DX at a 5 nM concentration, pre-treated again for 30 min prior to activation, then activated with 10 pg/ml IL-1β for 48 h with a booster SPM dose at 24 h. Culture media were collected and analyzed for IL-6 (Panel A) and PGE2 (Panel B). Mean+/−SEM of n=6 (two cases run in triplicate), ANOVA *p<0.05 vs. activation only (IL-1b).
(§2) In this example, a fibroblast-based in vitro LPV model was established. Briefly, fibroblast strains were obtained from two regions (FIG. 1) of the lower genital tract of localized provoked vulvodynia (LPV) cases and pain-free controls in the manner described in Falsetta et al. Am J Obstet Gynecol 2015, vol. 213, pp. 38 e1-12 and Foster et al., Pain 2015, vol. 156, pp. 386-96.
(§3) Over 30 paired fibroblast strains obtained from LPV-afflicted cases (fulfilling Friedrich's Criteria)^25 and age/race-matched (critical variables influencing LPV),^26, 27 pain-free controls were obtained. All subjects who contributed to the library were premenopausal, denied oral corticosteroids, non-steroidal, immunomodulatory, or anti-inflammatory medication use, and reported an absence of systemic/cutaneous inflammatory conditions at the time of sample collection. Mechanical pain thresholds were determined (via a method of limits) (0.5-5 N) using a Wagner algometer. Fibroblast identity was confirmed by microscopy and fibroblast markers (vimentin, collagen); only low passage (˜4) cells are used.
(§4) Synthesized, purified and commercially available SPMs from each known SPM class (E-series Resolvins, D-series Resolvins, Maresins, Protectins and Lipoxins) at low/nanomolar concentrations (1-100 nM) were tested. […] The inventors used one of two treatment regimens proven effective in vulvar fibroblasts and other cells: 1) overnight pre-treatment, followed by another treatment 30 min prior to stimulation with proinflammatory stimuli for 48 hr with a third dose of SPMs at 24 hr post-challenge, or 2) post-treatment with SPMs after a 30 min pre-treatment with inflammatory stimuli, followed by a booster dose 18 hr later. Both treatment regimens are of interest, as SPMs are active throughout the inflammatory process.^5-7 Even SPMs administered after LPV onset are likely to prevent the worsening or spread of LPV pain.
Next, SPMs from other classes (E series Resolvins and Protectins), as well as additional SPMs from classes containing members that are effective in reducing IL-6 and PGE2 production (e.g., Maresins) were investigated in similar screen. […] SPMs that were effective in reducing more than one proinflammatory mediator in at least 2 tests can be examined for further testing using a preclinical mouse model. […] These additional effective SPMs include Resolvin D3, Resolvin D4, Resolvin D5, Resolvin E1, Protectin D1, and Protectin DX. […]
A general note: An ELISA detects its analyte on a solid surface through an enzyme-linked reagent.

The subject of test [2] is human vulvar fibroblasts. Put plainly: In vitro LPV model: SPM post-treatment of already activated patient fibroblasts, IL-6 and PGE2. The note with it: post-treatment: IL-1β 30 min; for IL-6 production / PGE2 production: then 5 nM 18 hours, booster dose 24 hr; for IL-6 production: FIG. 24A; for PGE2 production: FIG. 24B. The method, then: as §1
FIGS. 24A and 24B are diagrams showing that six SPMs are effective in reducing IL-6 and PGE2 production from fibroblasts when used as a post-treatment. Patient vestibular or vulvar fibroblasts were activated first with IL-1β for 30 min then treated with RvD3, RvD4, RvD5, RvE1, Protectin D1 or Protectin DX at a 5 nM concentration for 18 hours, followed by a booster SPM dose for 24 hr. Culture media were collected and analyzed for IL-6 (Panel A) and PGE2 (Panel B) content. Mean+/−SEM of n=6 (two cases run in triplicate), ANOVA *p<0.05 vs. activation only (IL-1b). […] The magnitude of reduction was not as great as pre-treatment, but equally significant as the reduction from pre-treatment regimens.
as §2, §3, §4

The test system of the next test is Mouse vulvar tissue. Put plainly: Mouse vulvar explants (4 mm punch biopsy), IL-1β-stimulated PGE2 production. Conditions: pre-treatment 18 hours, then IL-1β 10 pg/ml 18 hours; range of doses, as low as 1 nM; FIG. 6. The method, then:
FIG. 6 is a diagram showing that SPMs inhibit PGE2 production from mouse vulvar tissue. Mouse vulvar tissue (4 mm punch biopsies) was collected and bisected then pre-treated in culture medium with either Maresin 1 or RvD2 at indicated concentrations for 18 hours, followed by an additional 18 hours stimulation with IL-1β (10 pg/ml). Culture medium was collected and analyzed for PGE2 content. Mean+/−SEM; n=3 replicate cultures. ANOVA * p<0.05 vs. vehicle.
Although SPM structure and therapeutic efficacy is conserved across species,^5-7 inventors first confirmed that mouse vulvar tissues responded to SPM treatment in vitro by culturing mouse vulvar explants (4 mm punch biopsy). The explants were stimulated with IL-1, and then assays were carried to assess the ability of Maresin 1 or RvD2 to reduce PGE2 production under the established pre-treatment regimen.

For the compound `CC/C=C\C[C@H](O)/C=C/C=C\C/C=C\C/C=C\C/C=C\CCC(=O)O` [17(S)-HDHA, 17(S)-hydroxy docosahexaenoic acid], the “effect on proinflammatory mediators linked to pain, initial tests” value (from here on “effect”) in the test with human vulvar fibroblasts [1] was “no striking effects”.

With `CC/C=C\C[C@@H](O)/C=C/C=C\C=C\C=C\[C@@H](O)[C@@H](O)C/C=C\CCC(=O)O` [AT-Resolvin D1, 7S,8R,17R-trihydroxy-docosa-4Z,9E,11E,13Z,15E,19Z-hexaenoic acid], the “effect” value in the test with human vulvar fibroblasts [1] is “no striking effects”.

Regarding `CCCCC[C@H](O)/C=C/C=C\C=C\C=C\[C@@H](O)[C@@H](O)CCCC(=O)O` [Lipoxin A4, 5S,6R,15S-trihydroxy-eicosa-7E,9E,11Z,13E-tetraenoic acid], the PGE2 levels entry in the test with human vulvar fibroblasts [2] (then 5 nM SPM 18 hours, booster dose 6 hr, FIG. 5C) is given as “significantly reduced”. For the same compound, the IL-6 levels entry with human vulvar fibroblasts [2] (then 5 nM SPM 18 hours, booster dose 6 hr, FIG. 5D) is “significantly reduced”. Also, in the test with human vulvar fibroblasts [1], the “prostaglandin E2 (PGE2) production” value was “significantly reduced” and the “interleukin-6 (IL-6) production” value is listed as “significantly reduced”.

On to `CCCCC[C@H](O)[C@H](O)/C=C/C=C/C=C\C=C\[C@@H](O)CCCC(=O)O` [Lipoxin B4], for which the “effect” value in the test with human vulvar fibroblasts [1] is “no striking effects”.

Consider `CC/C=C\C[C@H](O)\C=C/C=C/C=C/[C@H](O)C/C=C\C/C=C\CCC(=O)O` [Protectin D1, 10R,17S-dihydroxy-docosa-4Z,7Z,11E,13E,15Z,19Z-hexaenoic acid], for which the IL-6 production result with human vulvar fibroblasts [2] and in the test with human vulvar fibroblasts [1] was “showed efficacy” in each case. The PGE2 production entry in the test on human vulvar fibroblasts [2] and in the test with human vulvar fibroblasts [1] was “showed efficacy” each time.

With `CC/C=C\C[C@H](O)/C=C/C=C\C=C\[C@@H](O)C/C=C\C/C=C\CCC(=O)O` [Protectin DX], the IL-6 production entry in the test on human vulvar fibroblasts [2] and in the test on human vulvar fibroblasts [1] was “showed efficacy” each time. Also, the PGE2 production result in the test with human vulvar fibroblasts [2] and with human vulvar fibroblasts [1] was “showed efficacy” throughout.

Take `CC/C=C\C[C@H](O)/C=C/C=C\C=C\C=C\[C@@H](O)[C@@H](O)C/C=C\CCC(=O)O` [Resolvin D1, 7S,8R,17S-trihydroxy-docosa-4Z,9E,11E,13Z,15E,19Z-hexaenoic acid]: in the test with human vulvar fibroblasts [1], the “effect” value was “no striking effects”.

With `CC/C=C\C[C@H](O)[C@H](O)/C=C/C=C/C=C\C=C\[C@@H](O)C/C=C\CCC(=O)O` [Resolvin D2, 7S,16R,17S-trihydroxy-docosa-4Z,8E,10Z,12E,14E,19Z-hexaenoic acid], the “PGE2 responses following IL-1β treatment” value with Mouse vulvar tissue is recorded as “significantly suppressed”. Further, in the test on human vulvar fibroblasts [1], the “prostaglandin E2 (PGE2) production” value is recorded as “significantly reduced” and the “interleukin-6 (IL-6) production” value is “significantly reduced”.

As to `CC/C=C\C[C@H](O)/C=C/C=C\C[C@@H](O)/C=C/C=C/C=C\[C@@H](O)CCC(=O)O` [Resolvin D3, 4S,11R,17S-trihydroxy-docosa-5Z,7E,9E,13Z,15E,19Z-hexaenoic acid], the IL-6 production result in the test with human vulvar fibroblasts [2] and in the test on human vulvar fibroblasts [1] was “showed efficacy” throughout. The PGE2 production result in the test with human vulvar fibroblasts [2] and in the test with human vulvar fibroblasts [1] was “showed efficacy” in each case.

As to `CC/C=C\C[C@H](O)/C=C/C=C\C\C=C/C=C/C=C/[C@@H](O)[C@@H](O)CCC(=O)O` [Resolvin D4, 4S,5,17S-trihydroxy-docosa-6E,8E,10Z,13Z,15E,19Z-hexaenoic acid], in the test with human vulvar fibroblasts [2], the IL-6 production result is recorded as “showed efficacy” and the PGE2 production entry is listed as “showed efficacy”. For the same compound, in the test with human vulvar fibroblasts [1], the IL-6 production result was “showed efficacy” and the PGE2 production entry is on record as “showed efficacy”.

`CC/C=C\C[C@H](O)/C=C/C=C\C/C=C\C=C\[C@@H](O)C/C=C\CCC(=O)O` [Resolvin D5]: in the test on human vulvar fibroblasts [2], the IL-6 production result was “showed efficacy” and the PGE2 production entry is “showed efficacy”. In the test on human vulvar fibroblasts [1], the IL-6 production result is reported as “showed efficacy” and the PGE2 production entry is “showed efficacy”.

As for `CC[C@@H](O)/C=C/C=C\C[C@@H](O)/C=C/C=C/C=C\[C@@H](O)CCCC(=O)O` [Resolvin E1, 5S,12,18-trihydroxy-eicosa-6Z,8E,10E,14Z,16E-pentaenoic acid], the IL-6 production result in the test on human vulvar fibroblasts [2] and in the test with human vulvar fibroblasts [1] was “showed efficacy” each time. In addition, the PGE2 production result in the test on human vulvar fibroblasts [2] and with human vulvar fibroblasts [1] was “showed efficacy” throughout.

Consider `CC/C=C\C/C=C\C[C@H](O)\C=C/C=C/C=C/[C@@H](O)C/C=C\CCC(=O)O` [epi-Maresin 1, 7S,14S-docosa-4Z,8E,10E,12Z,16Z,19Z-hexaenoic acid], for which, in the test on human vulvar fibroblasts [1], the “prostaglandin E2 (PGE2) production” value is recorded as “significantly reduced” and the “interleukin-6 (IL-6) production” value is on record as “significantly reduced”.
